Read-outs that look alike come from different tables or passages of the source.
Legend:
mouse EP neurospheres = assay: 72 h dose response, CellTiter-Glo, mouse EP neurospheres; type: cell-based; conditions: Mus musculus, Fig. 2a, read-out: EC50
Method: (§1) In the Discovery Phase, the initial studies included the screen of a library of 9 compounds against epigenetic regulators at a single concentration and a dose-response on G3 MB, EP, and CPC tumor cells, as well as HEPG2 and BJ (Fig. 1). The library and dose response studies are described in the Supplementary Material.
(§2) Briefly, cells (see Supplementary Table S2 for cell identity) were plated in 384-well plates (Corning) in 30 µL of supplemented neurobasal medium by using an automated plate filler (Wellmate, Matrix). After 24 hr, 28 nL of compound was transferred via pin tool, resulting in a final drug concentration of approximately 4 nM to 10 µM. After 72 hr of treatment, CellTiter-Glo reagent (Promega) was added, and the luminescence signal was measured using an automated Envision plate reader (Perkin-Elmer). Luminescence data were normalized by log10-transformation prior to calculating the percentage of inhibition using the following equation: 100 × (negative control mean − compound value)/(negative control mean − positive control mean). Our negative control represents cells treated with 0.1% DMSO with 0% inhibition. Cells treated with 35 µM cycloheximide (G3 MB tumor spheres) or 10 µM panobinostat (EP and CPC cells) were used as positive controls with 100% inhibition. The response of cells to the compounds were normalized to that of the positive controls present in each plate screened, shown in the Y axis of the dose-response curve. […] Unless otherwise reported, the y-axis for each dose response curve in the figures was independently normalized to the range from 0 to 1 and therefore reported as ‘relative growth inhibition’. High through put assay data were analyzed by using our in-house Robust Interpretation of Screening Experiments (RISE) application that was written in Pipeline Pilot (Accelrys, v. 8.5) and R (R Development Core Team).

[1] = tested on: mouse CPC neurospheres (CPC300); assay: 72 h dose response, CellTiter-Glo, mouse CPC neurospheres; type: cell-based; conditions: Mus musculus, Fig. 2a, read-out: EC50
Method: as §1, §2

[2] = tested on: Ink4a/Arf−/− neural stem cells; assay: FdCyd growth inhibition, neural stem cells; type: cell-based, mouse; conditions: Fig. 2c
BJ cells = assay: FdCyd growth inhibition, BJ control cells; type: cell-based, human; conditions: Fig. 2c
G3 MB (Myc1) cells = assay: FdCyd wash-out experiment, G3 MB; type: cell-based; conditions: Mus musculus
Method: Myc1 and Myc2 G3 MB, EP, and CPC tumor cells (Supplementary Table 1) were plated in 96-well plates. After 24 h, 128 nL of a dilution series of a selected drug was transferred creating a final drug concentration of 0.5–9.3 µM. To assess the optimal exposure time, the drug was removed and replaced with fresh medium after 1, 3, 6, 10, 24, or 72 h (“wash-out”).
In both experiments, 72 h after drug addition to cells, we added 100 µL of CellTiter-Glo reagent (Promega), and we read the luminescence signal. Data analysis used GraphPad Prism software (Version 5.04).

[3] = Plasma pharmacokinetics in non-tumor-bearing CD1 nude mice; type: in vivo, mouse; conditions: for AUC(0-inf): read-out: plasma exposure (AUC0-Inf), mean ± SD
Method: (§3) Once a drug passed the Discovery Phase it was moved to the Pre-Clinical Phase, which included PK and PD studies (Fig. 1). The details of the plasma PK and cerebral microdialysis studies are provided in the Supplemental Materials.
An initial, detailed plasma PK study was performed in non–tumor-bearing CD1 nude mice to define drug disposition in our mouse model of interest, determine the plasma systemic exposure, and when possible, to compare the systemic exposure in the mouse with that achievable in patients at clinically relevant dosages. Dosing solutions were prepared in 5% dextrose for injection at concentrations providing a standard final dosing volume of 10 mL/kg (i.e., 2.5 mg/mL FdCyd and 10 mg/mL THU). Plasma samples were separated by centrifugation and stored at −80°C until analysis using a sensitive and specific liquid chromatography–tandem mass spectrometry (LC-MS/MS) method to determine FdCyd concentrations. Plasma samples were collected by using a sparse sampling design in which 2 - 3 blood samples per mouse were collected in tubes containing zebularine (final concentration in blood sample, 1 mg/mL) to inhibit cytidine deaminase activity in vitro.
An appropriate pharmacokinetic model was fit to the observed concentration-time data obtained from the initial PK studies (IP and IV administration) by using non-linear mixed-effect modeling (NONMEM 7.2, ICON Development Solutions). Using D-optimality implemented in ADAPT 5, we use the data from the plasma pharmacokinetic study to define a pharmacokinetic limited sampling model (LSM), which will be used in subsequent microdialysis studies.

[4] = Cerebral microdialysis, tECF disposition in tumor-bearing CD1 nude mice; type: in vivo; conditions: mouse, tumor extracellular fluid (dialysate) vs plasma, FdCyd 6 mg/kg with THU 100 mg/kg, read-out: tECF-to-plasma partition coefficient of unbound FdCyd (Kpt,uu), mean ± SD
Method: as §3
Cerebral microdialysis studies were performed in CD1 nude mice orthotopically transplanted with G3 MB, EP, or CPC tumors [,2,6]. Plasma and dialysate samples collected during microdialysis studies were analyzed by using LC-MS/MS to determine drug concentrations. Data obtained from microdialysis performed in individual tumor models were analyzed separately by using a compartmental approach. A model with a tECF compartment that was linked to the plasma compartment by using efflux (CL32) and influx (CL23) clearances was fit to the plasma and tumor ECF concentration-time data. These were obtained from previous plasma PK studies in all tumor models and from each microdialysis by using separate, tumor-specific population NONMEM 7.2.
The tECF-to-plasma partition coefficient of unbound drug (Kpt,uu) was calculated as a ratio of CL23 to CL32. The mean ± SD of individual tECF-to-plasma partition coefficients of unbound FdCyd (Kpt,uu) in CD1 nude mice bearing G3 MB, EP, and CPC were 0.06 ± 0.02, 0.18 ± 0.14, and 0.09 ± 0.04, respectively. […] Inter-animal variability in Kpt,uu, however, was higher in EP tumors than in G3 MB and CPC tumors.The area under plasma concentration-time curve (AUCplasma) was calculated as the ratio of dosage to CL, whereas AUCtECF was calculated as the product of AUCplasma and Kpt,uu.

EP tumors = assay: In vivo proliferation, Ki67 immunohistochemistry, EP
CPC tumors = assay: In vivo proliferation, Ki67 immunohistochemistry, CPC

EC50 (G3 MB (Myc1) cells; 1 h exposure then wash-out, read at 72 h, read-out: EC50 after 1 h FdCyd exposure): 8 ± 2 nM
EC50 (G3 MB (Myc1) cells; 72 h, wash-out, 1st of 4 values listed for the remaining time points (3, 6, 10, 24, 72 h), read-out: EC50, longer exposure): 5 nM
EC50 (G3 MB (Myc1) cells; 72 h, wash-out, 2nd of 4 values listed for the remaining time points (3, 6, 10, 24, 72 h), read-out: EC50, longer exposure): 4 nM
EC50 (G3 MB (Myc1) cells; 72 h, wash-out, 3rd of 4 values listed for the remaining time points (3, 6, 10, 24, 72 h), read-out: EC50, longer exposure): 2.3 nM
EC50 (G3 MB (Myc1) cells; 72 h, wash-out, 4th of 4 values listed for the remaining time points (3, 6, 10, 24, 72 h), read-out: EC50, longer exposure): 1 nM
FdCyd exposure in mice relative to humans ([3]; CD1 nude mice 25 mg/kg vs humans at RP2D 100 mg/m^2, human PK ref 26): approximately 4 times higher
AUC(0-inf) ([3]; CD1 nude, mouse, plasma, FdCyd 25 mg/kg with THU 100 mg/kg, IP): 112 ± 6.55 µM·h
AUC(0-inf) ([3]; CD1 nude, mouse, plasma, FdCyd 25 mg/kg with THU 100 mg/kg, IV): 114 ± 4.77 µM·h
clearance ([3]; CD1 nude, mouse, plasma, FdCyd 25 mg/kg with THU 100 mg/kg, NONMEM, IV and IP data, read-out: systemic clearance, population mean (standard error of estimation) (converted)): 15 mL/min/kg
Vd ([3]; CD1 nude, mouse, plasma, FdCyd 25 mg/kg with THU 100 mg/kg, NONMEM, IV and IP data, read-out: volume of distribution, population mean (standard error of estimation)): 0.62 L/kg
murine plasma exposure compared with RP2D in humans ([3]; IP 6 mg/kg FdCyd with 100 mg/kg THU, confirmatory PK study): comparable
Kp ([4]; mice bearing CPC): 0.09 ± 0.04
Kp ([4]; mice bearing EP): 0.18 ± 0.14
Kp ([4]; mice bearing G3 MB): 0.06 ± 0.02
Structure (SMILES): Nc1nc(=O)n([C@H]2C[C@H](O)[C@@H](CO)O2)cc1F [FdCyd, 5-fluoro-2′-deoxycytidine]
EC50 (mouse EP neurospheres): 4 nM
EC50 [1]: 5.6 nM
sensitivity to FdCyd (growth inhibition) [2]: showed sensitivity
sensitivity to FdCyd (growth inhibition) (BJ cells): not
Ki67 % of positive cells (EP tumors; 3 hr after IP injection of FdCyd + THU, vehicle 81.79): 77.06%
Ki67 % of positive cells (EP tumors; 8 hr after IP injection of FdCyd + THU, vehicle 80.10): 72.88%
Ki67 % of positive cells (EP tumors; 24 hr after IP injection of FdCyd + THU, vehicle 68.41): 72.62%
Ki67 % of positive cells (CPC tumors; 3 hr after IP injection of FdCyd + THU, vehicle 59.03): 47.82%
Ki67 % of positive cells (CPC tumors; 8 hr after IP injection of FdCyd + THU, vehicle 62.25): 23.4%
Ki67 % of positive cells (CPC tumors; 24 hr after IP injection of FdCyd + THU, vehicle 53.18): 61.3%
